Assay results published in US12534455B2, “Phthalazine derivatives as P2X3 inhibitors” (CHIESI FARMACEUTICI S.P.A., priority 2020, dated 2026).
Read-outs that look alike come from different tables or passages of the source.

Assays:
h P2X3 = biological target: T1, h P2X3 (Homo sapiens, UniProt P56373); assay: In vitro electrophysiology assay for P2X3 (Sophion Qube automated patch-clamp, α,β-MeATP agonist); assay type: cell-based; conditions: for h P2X3 (pIC50 range of activity): Table 3
T1 sequence (P56373 1-397): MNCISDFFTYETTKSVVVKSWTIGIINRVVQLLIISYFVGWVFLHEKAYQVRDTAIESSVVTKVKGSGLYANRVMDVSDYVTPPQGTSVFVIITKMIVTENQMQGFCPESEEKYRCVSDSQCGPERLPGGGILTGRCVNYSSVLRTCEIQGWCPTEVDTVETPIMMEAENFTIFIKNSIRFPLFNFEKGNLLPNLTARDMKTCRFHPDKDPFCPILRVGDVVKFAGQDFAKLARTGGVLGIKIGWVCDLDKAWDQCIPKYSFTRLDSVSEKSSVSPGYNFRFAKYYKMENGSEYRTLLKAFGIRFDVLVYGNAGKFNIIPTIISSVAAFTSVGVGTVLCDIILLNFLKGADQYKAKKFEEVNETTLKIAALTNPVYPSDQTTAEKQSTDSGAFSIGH
Protocol: Pharmacological Activity of the Compounds of the Invention. In Vitro Electrophysiology Assay for P2X3
Cells expressing P2X3 receptors were grown according to standard practice and maintained at 37° C. in a 5% humidified CO2 atmosphere. The cells were seeded into T175 flask 2 days prior to the day of the assay and dissociated from the flasks using TrypLE when grown to confluence of 80-90%. The dissociated cells were resuspended in serum free media at a cell density of 3×10^6 cells/ml and loaded onto the Sophion Qube automated patch-clamp system. The extracellular assay buffer contained 145 mM NaCl, 4 mM KCl, 2 mM CaCl2, 1 mM MgCl2, 10 mM HEPES, and 10 mM glucose at pH 7.4. The intracellular assay solution contained 140 mM CsF, 10 mM NaCl, 10 mM EGTA, 10 mM HEPES at pH 7.2. Agonist stock solutions were prepared in H2O and diluted in bath solution prior to use. All antagonists were prepared as 10 mM stock solutions in DMSO and diluted in bath solution prior to use. All experiments were performed under the whole-cell patch clamp configuration at room temperature with 384 individual cells being voltage clamped at −60 mV simultaneously on the Sophion Qube instrument. Two baseline responses were established with the application of α,β-MeATP (800 nM), with the subsequent agonist applications being washed out using extracellular assay buffer containing 0.5 U/ml apyrase. Following the second agonist application, antagonist was incubated in the absence of α,β-MeATP for 10 minutes. After antagonist preincubation, 800 nM α,β-MeATP and antagonist were co-administered to determine the inhibitory effect of the antagonist. One concentration of an antagonist was assessed against a single cell, with different concentrations of the antagonist applied to other cells on the 384 recording substrate. The control P2X3 current amplitude was taken from the peak current amplitude from the second agonist response prior to preincubation with antagonist. The peak P2X3 current amplitude in the presence of antagonist was used to calculate the inhibitory effect at each concentration of the antagonist according to the following equation: Percentage inhibition of P2X3=(P2X3 control peak amplitude-P2X3 antagonist peak amplitude)/P2X3 control peak amplitude)*100
Concentration-response curves were constructed from ten different concentrations with each concentration of antagonist tested on at least two individual cells. The concentration of the antagonist to inhibit P2X3 current by 50% (IC50) was determined by fitting the data with the following equation: Y=a+[(b−a)/(1+10^((log c−x)d)]
Where ‘a’ is minimum response, ‘b’ is maximum response, ‘c’ is IC50 and ‘d’ is Hill slope.
The results for individual compounds are provided below in Table 2 and are expressed as range of activity.

h P2X2/3 = biological target: T2, h P2X2/3 (Homo sapiens, UniProt P56373+Q9UBL9); assay: In vitro electrophysiology assay for P2X2/3 (same protocol, 10 μM ATP agonist); assay type: cell-based; conditions: Table 3; 10 μM ATP as agonist, mean current amplitude seven seconds after agonist; read-out: h P2X2/3 (pIC50 range of activity) (converted)
T2 construct: same protocol as the P2X3 assay
T2 sequence (P56373 1-397): T1 sequence (P56373 1-397)
T2 sequence (Q9UBL9 1-471): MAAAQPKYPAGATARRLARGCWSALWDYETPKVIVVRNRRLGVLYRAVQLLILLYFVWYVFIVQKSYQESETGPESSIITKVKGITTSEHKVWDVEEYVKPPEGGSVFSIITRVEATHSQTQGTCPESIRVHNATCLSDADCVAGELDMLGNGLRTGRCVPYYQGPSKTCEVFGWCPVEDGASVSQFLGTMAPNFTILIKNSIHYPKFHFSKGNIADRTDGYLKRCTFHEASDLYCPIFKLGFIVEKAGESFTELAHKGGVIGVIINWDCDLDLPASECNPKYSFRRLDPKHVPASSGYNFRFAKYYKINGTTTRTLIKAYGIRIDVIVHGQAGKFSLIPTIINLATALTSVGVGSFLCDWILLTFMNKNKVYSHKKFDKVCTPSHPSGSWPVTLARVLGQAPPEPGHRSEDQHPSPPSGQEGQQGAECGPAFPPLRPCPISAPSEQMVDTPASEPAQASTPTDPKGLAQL
Protocol: Cells expressing P2X3 receptors were grown according to standard practice and maintained at 37° C. in a 5% humidified CO2 atmosphere. The cells were seeded into T175 flask 2 days prior to the day of the assay and dissociated from the flasks using TrypLE when grown to confluence of 80-90%. The dissociated cells were resuspended in serum free media at a cell density of 3×10^6 cells/ml and loaded onto the Sophion Qube automated patch-clamp system. The extracellular assay buffer contained 145 mM NaCl, 4 mM KCl, 2 mM CaCl2, 1 mM MgCl2, 10 mM HEPES, and 10 mM glucose at pH 7.4. The intracellular assay solution contained 140 mM CsF, 10 mM NaCl, 10 mM EGTA, 10 mM HEPES at pH 7.2. Agonist stock solutions were prepared in H2O and diluted in bath solution prior to use. All antagonists were prepared as 10 mM stock solutions in DMSO and diluted in bath solution prior to use. […] One concentration of an antagonist was assessed against a single cell, with different concentrations of the antagonist applied to other cells on the 384 recording substrate. […]
The same assay protocol was used for the P2X2/3 assay as the P2X3 assay with two modifications: 1) 10 μM ATP was used as the agonist; and 2) the mean current amplitude was measured seven seconds after the application of agonist.

[1] = Table 2, whole-cell patch clamp, 800 nM α,β-MeATP, 10 min antagonist preincubation, read-out: h P2X3 (pIC50 range of activity) (converted)
[2] = whole-cell patch clamp, 800 nM α,β-MeATP

SMILES	IC50 (h P2X3; [1]) [nM]	also measured
Cc1ccc(C(C)Nc2nnc(C3CC3)c3ccc(-c4ccn(C)n4)cc23)nn1 (racemic) [Example 16, 4-Cyclopropyl-7-(1-methyl-1H-pyrazol-3-yl)-N-(1-(6-methylpyridazin-3-yl)ethyl)phthalazin-1-amine]	316 to 3160	
Cc1ccc(C(C)Nc2nnc(C3CCOCC3)c3ccc(-c4ccc(F)cn4)cc23)nn1 (single isomer, unassigned) [Example 11, 7-(5-Fluoropyridin-2-yl)-N-(1-(6-methylpyridazin-3-yl)ethyl)-4-(tetrahydro-2H-pyran-4-yl)phthalazin-1-amine]	316 to 3160	
Cc1ccc(CNc2nccc3ccc(-c4ccc(F)cc4)cc23)nn1 [Comparative Example A, reference compound]		IC50 (h P2X3; in vitro assay on P2X3 as described above, read-out: activity on receptor P2X3 expressed as pIC50 (converted)): > 3160 nM
Cc1cnc(-c2ccc3c(C4CCOCC4)nnc(NCc4ccc(C)nn4)c3c2)nc1 [Example 1, N-((6-Methylpyridazin-3-yl)methyl)-7-(5-methylpyrimidin-2-yl)-4-(tetrahydro-2H-pyran-4-yl)phthalazin-1-amine]	316 to 3160	IC50 (h P2X2/3): 3160 to 31600 nM; h P2X3 (pIC50 range of activity) (h P2X3; [2]): ++ (++: 6.5<pIC50 h P2X3 or h P2X2/3>5.5)
Fc1ccc(-c2ccc3cnnc(NCC4CC4)c3c2)cc1 [Example 2, N-(Cyclopropylmethyl)-7-(4-fluorophenyl)phthalazin-1-amine]	316 to 3160	
Cc1ccc(CNc2nncc3ccc(-c4ccc(F)cc4)cc23)nn1 [Example 3, 7-(4-Fluorophenyl)-N-((6-methylpyridazin-3-yl)methyl)phthalazin-1-amine]	< 316	
C[C@@H](Nc1nnc(C2CC2)c2ccc(-c3ccc(F)cc3)cc12)c1cnc(C(F)(F)F)nc1 [Example 4, (R)-4-Cyclopropyl-7-(4-fluorophenyl)-N-(1-(2-(trifluoromethyl)pyrimidin-5-yl)ethyl)phthalazin-1-amine]	316 to 3160	
Cc1ccc([C@@H](C)Nc2nnc(C3CC3)c3ccc(-c4ccc(F)cc4)cc23)nn1 [Example 5, (R)-4-Cyclopropyl-7-(4-fluorophenyl)-N-(1-(6-methylpyridazin-3-yl)ethyl)phthalazin-1-amine]	< 316	IC50 (h P2X2/3): 316 to 3160 nM; h P2X3 (pIC50 range of activity) (h P2X3; [2]): +++ (+++: pIC50 h P2X3 or h P2X2/3>6.5)
C[C@@H](Nc1nnc(C2CCOCC2)c2ccc(-c3ccc(F)cc3)cc12)c1cnc(C(F)(F)F)nc1 [Example 6, (R)-7-(4-Fluorophenyl)-4-(tetrahydro-2H-pyran-4-yl)-N-(1-(2-(trifluoromethyl)pyrimidin-5-yl)ethyl)phthalazin-1-amine]	316 to 3160	
Cc1ccc([C@@H](C)Nc2nnc(C3CCOCC3)c3ccc(-c4ccc(F)cc4)cc23)nn1 [Example 7, (R)-7-(4-Fluorophenyl)-N-(1-(6-methylpyridazin-3-yl)ethyl)-4-(tetrahydro-2H-pyran-4-yl)phthalazin-1-amine]	< 316	
Cc1ccc(CNc2nnc(C3CCOCC3)c3ccc(-c4ccc(F)cn4)cc23)nn1 [Example 9, 7-(5-Fluoropyridin-2-yl)-N-((6-methylpyridazin-3-yl)methyl)-4-(tetrahydro-2H-pyran-4-yl)phthalazin-1-amine]	316 to 3160	
Cc1ccc(CNc2nnc(CC3CCOCC3)c3ccc(-c4ccc(F)cn4)cc23)nn1 [Example 10, 7-(5-Fluoropyridin-2-yl)-N-((6-methylpyridazin-3-yl)methyl)-4-((tetrahydro-2H-pyran-4-yl)methyl)phthalazin-1-amine]	316 to 3160	
Cc1ccc(CNc2nncc3ccc(-c4ncc(C)s4)cc23)nn1 [Example 13, N-[(6-Methylpyridazin-3-yl)methyl]-7-(5-methylthiazol-2-yl)phthalazin-1-amine]	< 316	
Cc1cnc(-c2ccc3c(CC4CCOCC4)nnc(NCc4nc(C(F)(F)F)no4)c3c2)s1 [Example 14, 7-(5-Methylthiazol-2-yl)-4-((tetrahydro-2H-pyran-4-yl)methyl)-N-((3-(trifluoromethyl)-1,2,4-oxadiazol-5-yl)methyl)phthalazin-1-amine]	316 to 3160	
Cc1ccc(CNc2nnc(CC3CCOCC3)c3ccc(-c4ncc(C)s4)cc23)nn1 [Example 15, N-((6-Methylpyridazin-3-yl)methyl)-7-(5-methylthiazol-2-yl)-4-((tetrahydro-2H-pyran-4-yl)methyl)phthalazin-1-amine]	316 to 3160	
Cc1ccc(C(C)Nc2nnc(C3CCOCC3)c3ccc(-c4ccn(C)n4)cc23)nn1 (stereo not drawn) [Example 17, 7-(1-Methylpyrazol-3-yl)-N-[1-(6-methylpyridazin-3-yl)ethyl]-4-tetrahydropyran-4-yl-phthalazin-1-amine]	316 to 3160	
Cc1ccc(C(C)Nc2nnc(C3CC3)c3ccc(-c4ccn(C)n4)cc23)nn1 (stereo not drawn) [Example 19, 4-Cyclopropyl-7-(1-methyl-1H-pyrazol-3-yl)-N-(1-(6-methylpyridazin-3-yl)ethyl)phthalazin-1-amine]	316 to 3160	
